From patent publication US20150216903A1, “COMPOUNDS FOR IMPROVED VIRAL TRANSDUCTION” (BLUEBIRD BIO, INC., priority 2012, published 2015)

Test system: CD34+ cells
Assay: Time-course and dose-response of dmPGE2 in promoting viral transduction (GFP+ lentivirus, flow cytometry)
Assay type: cell-based, human
Conditions: for percentage of cells positive for GFP: MOI 25
Protocol: MCD-34+ cells were thawed and pre-stimulated with SCF, TPO, FltL and IL3, then transduced with GFP+ lentivirus at a multiplicity of infection of 25. Cells were exposed to dmPGE2 during the viral transduction step (24-25 hours of culture; 24-26 hours of culture; 24-28 hours of culture; or 24-48 hours of culture) and then washed and analyzed by flow cytometry after approximately 1 week in culture. Alternatively, cells were exposed to dmPGE2 during the pre-stimulation step (22-24 hours of culture; 23-24 hours of culture).

CCCCC(C)(C)[C@H](O)/C=C/[C@H]1[C@H](O)CC(=O)[C@@H]1C/C=C\CCCC(=O)O [dmPGE2, 16,16-dimethyl PGE2]
percentage of cells positive for GFP (dmPGE2 1 uM, Pre-Stim w/PGE2 Minus 2 Hr (22-24 hours of culture)): 25.74%
percentage of cells positive for GFP (dmPGE2 1 uM, Virus and PGE2 24 Hr (24-48 hours of culture)): 32.03%
percentage of cells positive for GFP (dmPGE2 1 uM, Virus and PGE2 Plus 1 Hr (24-25 hours of culture)): 2.94%
percentage of cells positive for GFP (dmPGE2 1 uM, Virus and PGE2 Plus 2 Hr (24-26 hours of culture)): 7.17%
percentage of cells positive for GFP (dmPGE2 1 uM, Virus and PGE2 Plus 4 Hr (24-28 hours of culture)): 21.10%
percentage of cells positive for GFP (dmPGE2 12.5 uM, Pre-Stim w/PGE2 Minus 1 Hr (23-24 hours of culture)): 22.13%
percentage of cells positive for GFP (dmPGE2 12.5 uM, Pre-Stim w/PGE2 Minus 2 Hr (22-24 hours of culture)): 30.64%
percentage of cells positive for GFP (dmPGE2 12.5 uM, Virus and PGE2 24 Hr (24-48 hours of culture)): 47.42%
percentage of cells positive for GFP (dmPGE2 12.5 uM, Virus and PGE2 Plus 1 Hr (24-25 hours of culture)): 1.97%
percentage of cells positive for GFP (dmPGE2 12.5 uM, Virus and PGE2 Plus 2 Hr (24-26 hours of culture)): 5.32%
percentage of cells positive for GFP (dmPGE2 12.5 uM, Virus and PGE2 Plus 4 Hr (24-28 hours of culture)): 28.08%
percentage of cells positive for GFP (dmPGE2 25 uM, Pre-Stim w/PGE2 Minus 1 Hr (23-24 hours of culture)): 24.05%
percentage of cells positive for GFP (dmPGE2 25 uM, Pre-Stim w/PGE2 Minus 2 Hr (22-24 hours of culture)): 31.90%
percentage of cells positive for GFP (dmPGE2 25 uM, Virus and PGE2 24 Hr (24-48 hours of culture)): 50.69%
percentage of cells positive for GFP (dmPGE2 25 uM, Virus and PGE2 Plus 1 Hr (24-25 hours of culture)): 1.76%
percentage of cells positive for GFP (dmPGE2 25 uM, Virus and PGE2 Plus 2 Hr (24-26 hours of culture)): 4.76%
percentage of cells positive for GFP (dmPGE2 25 uM, Virus and PGE2 Plus 4 Hr (24-28 hours of culture)): 27.46%
percentage of cells positive for GFP (dmPGE2 50 uM, Pre-Stim w/PGE2 Minus 1 Hr (23-24 hours of culture)): 22.98%
percentage of cells positive for GFP (dmPGE2 50 uM, Pre-Stim w/PGE2 Minus 2 Hr (22-24 hours of culture)): 31.85%
percentage of cells positive for GFP (dmPGE2 50 uM, Virus and PGE2 24 Hr (24-48 hours of culture)): 54.63%
percentage of cells positive for GFP (dmPGE2 50 uM, Virus and PGE2 Plus 1 Hr (24-25 hours of culture)): 1.85%
percentage of cells positive for GFP (dmPGE2 50 uM, Virus and PGE2 Plus 2 Hr (24-26 hours of culture)): 4.23%
percentage of cells positive for GFP (dmPGE2 50 uM, Virus and PGE2 Plus 4 Hr (24-28 hours of culture)): 27.45%
percentage of cells positive for GFP (dmPGE2 100 uM, Pre-Stim w/PGE2 Minus 1 Hr (23-24 hours of culture)): 25.14%
percentage of cells positive for GFP (dmPGE2 100 uM, Pre-Stim w/PGE2 Minus 2 Hr (22-24 hours of culture)): 34.85%
percentage of cells positive for GFP (dmPGE2 100 uM, Virus and PGE2 24 Hr (24-48 hours of culture)): 76.44%
percentage of cells positive for GFP (dmPGE2 100 uM, Virus and PGE2 Plus 1 Hr (24-25 hours of culture)): 2.48%
percentage of cells positive for GFP (dmPGE2 100 uM, Virus and PGE2 Plus 2 Hr (24-26 hours of culture)): 4.02%
percentage of cells positive for GFP (dmPGE2 100 uM, Virus and PGE2 Plus 4 Hr (24-28 hours of culture)): 21.57%
improvement of viral transduction (time windows commonly used for promoting hematopoietic stem cell activity, on the order of one to two hours): unable to improve viral transduction
